Source: patent publication US20240383852A1, “ANTI-VIRAL COMPOUNDS” (INFEX Therapeutics Limited, priority 2021, published 2024)
Counter-ions that a name gives are not always drawn.

Key:
[1] = molecular target: T1, SARS-CoV-2 PLpro (Severe acute respiratory syndrome coronavirus 2, UniProt P0DTD1); experiment: biochemical; settings: 60 nM papain-like protease, 50 μM Z-RLRGG-AMC, pH 7.5, 37° C.; read-out: SARS-CoV-2 PLpro IC50
T1 construct: containing 60 nM papain-like protease

[2] = tested on: human Hep G2 cells (ATCC HB-8065); experiment: Cytotoxicity in Hep G2 cells (CellTiter-Glo); assay type: cell-based; settings: Hep G2 cells, 100 μM test article, 24-hour exposure

Cc1ccc(N2CCN(C)CC2)cc1C(=O)N[C@H](C)c1cccc(-c2cnc(N)nc2)c1 [Example 63, N-[(1R)-1-[3-(2-Aminopyrimidin-5-yl)phenyl]ethyl]-2-methyl-5-(4-methylpiperazin-1-yl)benzamide]
IC50 [1]: < 2000 nM
% Cell Viability [2]: 75.6%

Cc1ccc(N2CCN(C)CC2)cc1C(=O)N[C@H](C)c1cccc(-c2nccs2)c1 [Example 65, 2-Methyl-5-(4-methylpiperazin-1-yl)-N-[(1R)-1-(3-thiazol-2-ylphenyl)ethyl]benzamide]
IC50 [1]: < 2000 nM
% Cell Viability [2]: 77.6%

Cc1ccc(N2CCN(C)CC2)cc1C(=O)N[C@H](C)c1cccc(-c2ccc(=O)[nH]c2)c1 [Example 66, 2-Methyl-5-(4-methylpiperazin-1-yl)-N-[(1R)-1-[3-(6-oxo-1,6-dihydropyridin-3-yl)phenyl]ethyl]benzamide]
IC50 [1]: < 2000 nM
% Cell Viability [2]: 100.8%

Cc1ccc(N2CCN(C)CC2)cc1C(=O)N[C@H](C)c1cccc(-c2ccc(N)nc2)c1 [Example 67, N-[(1R)-1-[3-(6-Amino-3-pyridyl)phenyl]ethyl]-2-methyl-5-(4-methylpiperazin-1-yl)benzamide]
IC50 [1]: < 2000 nM
% Cell Viability [2]: 58.7%

Cc1ccc(N2CCN(C)CC2)cc1C(=O)N[C@H](C)c1cccc(-c2cccc(CN(C)C)c2)c1 [Example 68, N-[(1R)-1-[3-[3-[(Dimethylamino)methyl]phenyl]phenyl]ethyl]-2-methyl-5-(4-methylpiperazin-1-yl)benzamide Dihydrochloride Salt]
IC50 [1]: < 2000 nM
% Cell Viability [2]: 48.9%

Cc1ccc(N2CCN(C)CC2)cc1C(=O)N[C@H](C)c1cccc(C(O)CO)c1 (stereo partly drawn) [Example 69, N-[(1R)-1-[3-(1,2-Dihydroxyethyl)phenyl]ethyl]-2-methyl-5-(4-methylpiperazin-1-yl)benzamide]
IC50 [1]: < 10000 nM
% Cell Viability [2]: 107.0%

Cc1ccc(N2CCN(C)CC2)cc1C(=O)N[C@H](C)c1cccc(-c2ccc(C(O)CO)cc2)c1 (stereo partly drawn) [Example 70, N-[(1R)-1-[3-[4-(1,2-Dihydroxyethyl)phenyl]phenyl]ethyl]-2-methyl-5-(4-methylpiperazin-1-yl)benzamide]
IC50 [1]: < 2000 nM
% Cell Viability [2]: 59.1%

Cc1ccc(N2CCN(C)CC2)cc1C(=O)N[C@H](C)c1cccc(-c2cccc(C(O)CO)c2)c1 (stereo partly drawn) [Example 71, N-[(1R)-1-[3-[3-(1,2-Dihydroxyethyl)phenyl]phenyl]ethyl]-2-methyl-5-(4-methylpiperazin-1-yl)benzamide]
IC50 [1]: < 2000 nM
% Cell Viability [2]: 68.4%

Cc1ccc(N2CCN(C)CC2)cc1C(=O)N[C@H](C)c1cccc(-c2ccc(N3CCNCC3)cc2)c1 [Example 73, 2-Methyl-5-(4-methylpiperazin-1-yl)-N-[(1R)-1-[3-(4-piperazin-1-ylphenyl)phenyl]ethyl]benzamide dihydrochloride salt]
IC50 [1]: < 2000 nM
% Cell Viability [2]: 0.6%

Cc1ccc(N2CCN(C)CC2)cc1C(=O)N[C@H](C)c1cccc(-c2cccc(N3CCNCC3)c2)c1 [Example 74, 2-Methyl-5-(4-methylpiperazin-1-yl)-N-[(1R)-1-[3-(3-piperazin-1-ylphenyl)phenyl]ethyl]benzamide]
IC50 [1]: < 2000 nM
% Cell Viability [2]: 0.6%

CNCCN(C)C(=O)c1ccc(-c2cccc([C@@H](C)NC(=O)c3cc(N4CCN(C)CC4)ccc3C)c2)cc1 [Example 75, 2-Methyl-N-[(1R)-1-[3-[4-[methyl-[2-(methylamino)ethyl]carbamoyl]phenyl]phenyl]ethyl]-5-(4-methylpiperazin-1-yl)benzamide]
IC50 [1]: < 2000 nM
% Cell Viability [2]: 123.6%

Cc1ccc(N2CCN(C)CC2)cc1C(=O)N[C@H](C)c1cccc(-c2cccc(=O)[nH]2)c1 [Example 76, 2-Methyl-5-(4-methylpiperazin-1-yl)-N-[(1R)-1-[3-(6-oxo-1H-pyridin-2-yl)phenyl]ethyl]benzamide]
IC50 [1]: < 2000 nM
% Cell Viability [2]: 81.2%

Cc1ccc(N2CCN(C)CC2)cc1C(=O)N[C@H](C)c1cccc(-c2ccc(C3CCNCC3)cc2)c1 [Example 77, 2-Methyl-5-(4-methylpiperazin-1-yl)-N-[(1R)-1-[3-[4-(4-piperidyl)phenyl]phenyl]ethyl]benzamide]
IC50 [1]: < 2000 nM
% Cell Viability [2]: 1.0%

Cc1ccc(N2CCN(C)CC2)cc1C(=O)N[C@H](C)c1cccc(-c2ccc(CNC3CCCC3)s2)c1 [Example 78, N-[(1R)-1-[3-[5-[(Cyclopentylamino)methyl]-2-thienyl]phenyl]ethyl]-2-methyl-5-(4-methylpiperazin-1-yl)benzamide Dihydrochloride Salt]
IC50 [1]: < 2000 nM
% Cell Viability [2]: 1.3%

Cc1ccc(N2CCN(C)CC2)cc1C(=O)N[C@H](C)c1cccc(-c2ccc(CO)s2)c1 [Example 79, N-[(1R)-1-[3-[5-(Hydroxymethyl)-2-thienyl]phenyl]ethyl]-2-methyl-5-(4-methylpiperazin-1-yl)benzamide]
IC50 [1]: < 2000 nM
% Cell Viability [2]: 52.9%

Cc1ccc(N2CCN(C)CC2)cc1C(=O)N[C@H](C)c1cccc(-c2ccccc2CO)c1 [Example 80, N-[(1R)-1-[3-[2-(Hydroxymethyl)phenyl]phenyl]ethyl]-2-methyl-5-(4-methylpiperazin-1-yl)benzamide]
IC50 [1]: < 2000 nM
% Cell Viability [2]: 79.5%

Cc1ccc(N2CCN(C)CC2)cc1C(=O)N[C@H](C)c1cccc(-c2cc(CO)cc(CO)c2)c1 [Example 81, N-[(1R)-1-[3-[3,5-Bis(hydroxymethyl)phenyl]phenyl]ethyl]-2-methyl-5-(4-methylpiperazin-1-yl)benzamide]
IC50 [1]: < 2000 nM
% Cell Viability [2]: 94.4%

CNC(=O)CCc1cccc([C@@H](C)NC(=O)c2cc(N3CCN(C)CC3)ccc2C)c1 [Example 85, 2-Methyl-N-[(1R)-1-[3-[3-(methylamino)-3-oxo-propyl]phenyl]ethyl]-5-(4-methylpiperazin-1-yl)benzamide]
IC50 [1]: < 10000 nM
% Cell Viability [2]: 85.1%

Cc1ccc(N2CCN(C)CC2)cc1C(=O)N[C@H](C)c1cccc(-c2cccc(C(=O)N(C)CCN(C)C)c2)c1 [Example 86, N-[(1R)-1-[3-[3-[2-(Dimethylamino)ethyl-methyl-carbamoyl]phenyl]phenyl]ethyl]-2-methyl-5-(4-methylpiperazin-1-yl)benzamide]
IC50 [1]: < 2000 nM
% Cell Viability [2]: 72.1%

COCCNC(=O)c1cccc(-c2cccc([C@@H](C)NC(=O)c3cc(N4CCN(C)CC4)ccc3C)c2)c1 [Example 87, N-[(1R)-1-[3-[3-(2-Methoxyethylcarbamoyl)phenyl]phenyl]ethyl]-2-methyl-5-(4-methylpiperazin-1-yl)benzamide]
IC50 [1]: < 2000 nM
% Cell Viability [2]: 74.6%

Cc1ccc(N2CCN(C)CC2)cc1C(=O)N[C@H](C)c1cccc(-c2cccc(C(=O)N3CCN(C)CC3)c2)c1 [Example 88, 2-Methyl-N-[(1R)-1-[3-[3-(4-methylpiperazine-1-carbonyl)phenyl]phenyl]ethyl]-5-(4-methylpiperazin-1-yl)benzamide]
IC50 [1]: < 2000 nM
% Cell Viability [2]: 78.8%

Cc1ccc(N2CCN(C)CC2)cc1C(=O)N[C@H](C)c1cccc(-c2cccc(C(=O)NC[C@H](O)CO)c2)c1 [Example 89]
IC50 [1]: < 5000 nM
% Cell Viability [2]: 96.2%

Cc1ccc(N2CCN(C)CC2)cc1C(=O)N[C@H](C)c1cccc(-c2cccc(C(=O)NC[C@@H](O)CO)c2)c1 [Example 90]
IC50 [1]: < 2000 nM
% Cell Viability [2]: 103.1%

Cc1ccc(N2CCN(C)CC2)cc1C(=O)N[C@H](C)c1cccc(-c2cccc(C(=O)N3CCCCC3)c2)c1 [Example 91, 2-Methyl-5-(4-methylpiperazin-1-yl)-N-[(1R)-1-[3-[3-(piperidine-1-carbonyl)phenyl]phenyl]ethyl]benzamide]
IC50 [1]: < 2000 nM
% Cell Viability [2]: 27.1%

Cc1ccc(N2CCN(C)CC2)cc1C(=O)N[C@H](C)c1cccc(-c2cccc(C(=O)N3CCOCC3)c2)c1 [Example 92, 2-Methyl-5-(4-methylpiperazin-1-yl)-N-[(1R)-1-[3-[3-(morpholine-4-carbonyl)phenyl]phenyl]ethyl]benzamide]
IC50 [1]: < 2000 nM
% Cell Viability [2]: 76.9%

Cc1ccc(N2CCN(C)CC2)cc1C(=O)N[C@H](C)c1cccc(-c2cccc(C(=O)NCCCN(C)C)c2)c1 [Example 93, N-[(1R)-1-[3-[3-[3-(Dimethylamino)propylcarbamoyl]phenyl]phenyl]ethyl]-2-methyl-5-(4-methylpiperazin-1-yl)benzamide]
IC50 [1]: < 2000 nM
% Cell Viability [2]: 41.9%

Cc1ccc(N2CCN(C)CC2)cc1C(=O)N[C@H](C)c1cccc(-c2cccc(C(=O)NCCN(C)C)c2)c1 [Example 94, N-[(1R)-1-[3-[3-[2-(Dimethylamino)ethylcarbamoyl]phenyl]phenyl]ethyl]-2-methyl-5-(4-methylpiperazin-1-yl)benzamide]
IC50 [1]: < 2000 nM
% Cell Viability [2]: 17.3%

Cc1ccc(N2CCN(C)CC2)cc1C(=O)N[C@H](C)c1cccc(-c2cccc(C(=O)N3CC[C@H](O)C3)c2)c1 [Example 95, N-[(1R)-1-[3-[3-[(3S)-3-Hydroxypyrrolidine-1-carbonyl]phenyl]phenyl]ethyl]-2-methyl-5-(4-methylpiperazin-1-yl)benzamide]
IC50 [1]: < 2000 nM
% Cell Viability [2]: 88.5%

Cc1ccc(N2CCN(C)CC2)cc1C(=O)N[C@H](C)c1cccc(CCC(=O)NCCO)c1 [Example 96, N-[(1R)-1-[3-[3-(2-Hydroxyethylamino)-3-oxo-propyl]phenyl]ethyl]-2-methyl-5-(4-methylpiperazin-1-yl)benzamide]
IC50 [1]: < 10000 nM
% Cell Viability [2]: 97.3%

Cc1ccc(N2CCN(C)CC2)cc1C(=O)N[C@H](C)c1cccc(-c2cccc(C(=O)NCCO)c2)c1 [Example 97, N-[(1R)-1-[3-[3-(2-Hydroxyethylcarbamoyl)phenyl]phenyl]ethyl]-2-methyl-5-(4-methylpiperazin-1-yl)benzamide]
IC50 [1]: < 2000 nM
% Cell Viability [2]: 72.1%
